The text below walks through data of PubChem BioAssay (NCI).

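Following 48 hours of exposure in 96-well plates, responses at five concentrations were used to interpolate endpoints linearly. TGI: concentration producing complete growth inhibition.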

Test systems include A549 NSCLC; CCRF-CEM leukemia; COLO 205 colon; HCT-15 colon; HS 578T breast; HT29 colon; KM12 colon; LOX IMVI melanoma; NCI-H226 lung; NCI-H522 lung; PC-3 prostate; RPMI-8226 leukemia; SF-295 CNS; SK-MEL-2 melanoma; SK-MEL-5 melanoma; SN12C renal; SNB-19 CNS; SR leukemia; U251 CNS; SF-268 CNS.
Holding throughout (test): inhibition of tumour cell growth, NCI panel, 48 h

Consider `Cn1c2ccccc2c2c3c(c4c5ccccc5n(C)c4c21)C(=O)N(Cc1ccccc1)C3=O`, for which the TGI in the experiment on A549 NSCLC, in the experiment on CCRF-CEM leukemia, with COLO 205 colon, in the experiment on HCT-15 colon, in the experiment with HS 578T breast and with HT29 colon was over 100 µM each time. For the same compound, the TGI in the experiment on KM12 colon, with LOX IMVI melanoma, in the experiment with NCI-H226 lung, in the experiment with NCI-H522 lung, in the experiment with PC-3 prostate and with RPMI-8226 leukemia was over 100 µM each time. The TGI in the experiment with SF-295 CNS was over 100 µM; in the experiment on SK-MEL-2 melanoma it was over 100 µM; in the experiment on SK-MEL-5 melanoma it was over 100 µM; in the experiment on SN12C renal it was over 100 µM; with SNB-19 CNS, over 100 µM; with SR leukemia it was 51.6 µM. Besides, the TGI in the experiment on U251 CNS is over 100 µM.
With `CC(=O)OC(OC(C)=O)c1c2ccccc2cc2ccccc12`, the TGI in the experiment with A549 NSCLC was determined as 65.9 µM; in the experiment on CCRF-CEM leukemia, 18 µM; with COLO 205 colon it was 37.2 µM; with HCT-15 colon, 56 µM; in the experiment on HS 578T breast, 78.3 µM; in the experiment with HT29 colon, 28.6 µM. The TGI with KM12 colon was found to be 33.4 µM; in the experiment with LOX IMVI melanoma, 59.9 µM; in the experiment on NCI-H226 lung it was 37.7 µM; in the experiment on PC-3 prostate, 90.5 µM; with RPMI-8226 leukemia, 87.2 µM; in the experiment with SF-268 CNS it was 51.8 µM. In addition, the TGI in the experiment on SF-295 CNS is 45.3 µM; in the experiment with SK-MEL-5 melanoma, 25.8 µM; in the experiment on SN12C renal it was 63.4 µM; in the experiment on SNB-19 CNS, 96.3 µM; in the experiment with SR leukemia, 56.3 µM; in the experiment with U251 CNS it was over 100 µM.
On to `C=CC(=C)CCC(Br)C(C)(C)Br` (stereo not given), for which the TGI with A549 NSCLC is over 100 µM; in the experiment on CCRF-CEM leukemia, 50.8 µM; with COLO 205 colon it was over 100 µM; in the experiment with HCT-15 colon it was over 100 µM; in the experiment on HS 578T breast, over 100 µM; in the experiment with HT29 colon, over 100 µM. Also, the TGI in the experiment with KM12 colon is over 100 µM; in the experiment with NCI-H226 lung, over 100 µM; with NCI-H522 lung, 30.6 µM; in the experiment with PC-3 prostate, over 100 µM; in the experiment on RPMI-8226 leukemia, over 100 µM; in the experiment with SF-268 CNS, over 100 µM. Further, the TGI with SF-295 CNS, in the experiment with SK-MEL-2 melanoma, in the experiment on SK-MEL-5 melanoma, with SN12C renal, in the experiment on SNB-19 CNS and with SR leukemia was over 100 µM throughout. Besides, the TGI with U251 CNS is over 100 µM.
Take `Cc1ccc(C(=O)C2C=C(c3ccc(C)cc3)SC3C=CCC32)cc1` (stereo not given): the TGI in the experiment with A549 NSCLC was determined as 57.1 µM; in the experiment on CCRF-CEM leukemia, 38.3 µM; with COLO 205 colon, 38 µM; with HCT-15 colon it was 47.9 µM; with HS 578T breast, 73.8 µM; in the experiment on HT29 colon, 43.1 µM. Further, the TGI in the experiment on KM12 colon came out at 30.3 µM; with LOX IMVI melanoma, 39.5 µM; in the experiment on NCI-H226 lung, 66.1 µM; in the experiment with NCI-H522 lung, 29.6 µM; in the experiment on PC-3 prostate it was 39.4 µM; in the experiment with RPMI-8226 leukemia, 80.1 µM. In addition, the TGI was 39.9 µM with SF-295 CNS; 36.8 µM in the experiment with SK-MEL-2 melanoma; 29.2 µM with SK-MEL-5 melanoma; 33.1 µM in the experiment on SN12C renal; over 100 µM in the experiment on SNB-19 CNS; 58.2 µM with SR leukemia. In the experiment with U251 CNS, this compound had a TGI of 32.5 µM.
In the case of `Cc1cc2c3c(nc2c2cc[nH]c(C)c12)CCCC3`, the TGI in the experiment with A549 NSCLC is 4.53 µM; in the experiment with CCRF-CEM leukemia it was 6.48 µM; with COLO 205 colon, 3.37 µM; in the experiment on HCT-15 colon, 3.54 µM; in the experiment on HS 578T breast, 4.41 µM; in the experiment with HT29 colon, 6.25 µM. Further, the TGI is 7.13 µM with KM12 colon; 4.69 µM in the experiment with LOX IMVI melanoma; 29.6 µM in the experiment with NCI-H226 lung; 16.6 µM in the experiment with PC-3 prostate; 4.56 µM in the experiment with RPMI-8226 leukemia; 14 µM in the experiment on SF-268 CNS. Also, the TGI in the experiment with SF-295 CNS is 3.93 µM; with SK-MEL-2 melanoma, 3.2 µM; with SK-MEL-5 melanoma, 2.89 µM; in the experiment on SN12C renal it was 3.39 µM; in the experiment on SR leukemia it was 4.29 µM; in the experiment with U251 CNS it was 3.83 µM.
For the compound `Cc1cn(CCCCOC(=O)NC(CCCN=C(N)N)C(=O)O)c(=O)[nH]c1=O` (stereo not given), the TGI in the experiment on A549 NSCLC, with CCRF-CEM leukemia, in the experiment on COLO 205 colon, in the experiment with HCT-15 colon, with HS 578T breast and in the experiment with HT29 colon was over 100 µM each time. For the same compound, the TGI in the experiment with KM12 colon, in the experiment with LOX IMVI melanoma, with NCI-H226 lung, with PC-3 prostate, in the experiment with RPMI-8226 leukemia and with SF-268 CNS was over 100 µM in each case. Further, the TGI with SF-295 CNS, in the experiment on SK-MEL-2 melanoma, in the experiment on SN12C renal, in the experiment with SNB-19 CNS, in the experiment on SR leukemia and with U251 CNS was over 100 µM throughout.
As for `C=C(C)[C@@]12C[C@H](OC(=O)[C@H](O)[C@@H](NC(=O)c3ccccc3)c3ccccc3)C(C)=C1[C@@H](OC(C)=O)C(=O)[C@@]1(C)C([C@@H]2OC(=O)c2cc(F)cc(F)c2)C2(OC(C)=O)CO[C@@H]2C[C@@H]1O` (stereo not given in full), the TGI was over 6.61 µM with A549 NSCLC; 0.355 µM in the experiment with CCRF-CEM leukemia; 0.392 µM in the experiment on COLO 205 colon; over 5.21 µM in the experiment on HCT-15 colon; 0.215 µM in the experiment with HS 578T breast; 1.4 µM in the experiment with HT29 colon. In addition, the TGI in the experiment on KM12 colon is over 3.26 µM; with LOX IMVI melanoma it was 2.21 µM; in the experiment on NCI-H226 lung, over 10 µM; in the experiment on PC-3 prostate it was over 10 µM; in the experiment with RPMI-8226 leukemia it was 0.547 µM; in the experiment on SF-268 CNS, over 7.16 µM. Also, the TGI with SF-295 CNS is over 10 µM; in the experiment on SK-MEL-2 melanoma, 2.28 µM; with SK-MEL-5 melanoma it was over 10 µM; in the experiment on SN12C renal, over 4.51 µM; with SNB-19 CNS it was over 10 µM; in the experiment on SR leukemia it was over 3.64 µM. The TGI with U251 CNS is over 5.16 µM.
